Measured values: ChEMBL document CHEMBL3046820, “1,6-Bis[1-(2-chloro-5-thiazolylmethyl)-2-nitroiminoimidazolidin-3-yl]hexane and 1,3,5-tris[1-(6-chloronicotinyl)-2-nitroiminoimidazolidin-3-ylmethyl]benzeneSynthesis and insecticidal and neuroblocking activities in American cockroaches, Periplaneta americana” (2006)

How the values were obtained:
Format in all cases: functional
Periplaneta americana [1] = experiment: Insecticidal activity against adult male Periplaneta americana (American cockroach) dosed through injection into abdomen assessed as mortality measured 24 hr post dose pre-treated with 50 ug metabolic inhibitor PB and 50 ug NIA 1 hr before compound injection
Periplaneta americana [2] = experiment: Insecticidal activity against adult male Periplaneta americana (American cockroach) dosed through injection into abdomen assessed as mortality measured 24 hr post dose
[3] = tested on: Abdominal central nerve cord; experiment: Neuroblocking activity in adult male Periplaneta americana (American cockroach) abdominal central nerve cords containing fifth and sixth ganglia assessed as neuroblocking concentration to supress frequncy below 10 counts/30 sec measured at 22 to 25 degC

## O=[N+]([O-])/N=C1\NCCN1Cc1ccc(Cl)nc1 [IMIDACLOPRID]
Periplaneta americana [1]
  MLD: 0.071 nmol
Periplaneta americana [2]
  MLD: 1.1 nmol
[3]
  BC: 2.3 µM

## O=[N+]([O-])/N=C1\N(Cc2ccc(Cl)nc2)CCN1Cc1cccc(CN2CCN(Cc3ccc(Cl)nc3)/C2=N/[N+](=O)[O-])c1CN1CCN(Cc2ccc(Cl)nc2)/C1=N\[N+](=O)[O-]
Periplaneta americana [1]
  MLD: 3.4 nmol
Periplaneta americana [2]
  MLD: 34 nmol
[3]
  BC: 100 µM

## O=[N+]([O-])/N=C1/N(CCCCCCN2CCN(Cc3cnc(Cl)s3)/C2=N/[N+](=O)[O-])CCN1Cc1cnc(Cl)s1
Periplaneta americana [1]
  MLD: 1.1 nmol
Periplaneta americana [2]
  MLD: 8.9 nmol

## O=[N+]([O-])/N=C1/N(CCCCCCN2CCN(Cc3ccc(Cl)nc3)/C2=N/[N+](=O)[O-])CCN1Cc1ccc(Cl)nc1 [Hexamethylene 1,6-bis-imadacloprid]
Periplaneta americana [1]
  MLD: 0.29 nmol
Periplaneta americana [2]
  MLD: 2.2 nmol
[3]
  BC: 3.7 µM

## O=[N+]([O-])/N=C(/NCCCCCCN/C(=N\[N+](=O)[O-])NCc1cnc(Cl)s1)NCc1cnc(Cl)s1
Periplaneta americana [1]
  MLD: 85.1 nmol
Periplaneta americana [2]
  MLD: >134 nmol
[3]
  BC: 14.8 µM

## O=[N+]([O-])/N=C1\N(Cc2ccc(Cl)nc2)CCN1Cc1cccc(CN2CCN(Cc3ccc(Cl)nc3)/C2=N/[N+](=O)[O-])c1
Periplaneta americana [1]
  MLD: 1 nmol
Periplaneta americana [2]
  MLD: 20 nmol

## O=[N+]([O-])/N=C(/NCCCCCCN/C(=N\[N+](=O)[O-])NCc1ccc(Cl)nc1)NCc1ccc(Cl)nc1
Periplaneta americana [1]
  MLD: 25.7 nmol
Periplaneta americana [2]
  MLD: >129 nmol
[3]
  BC: 26.3 µM
